According to article PMC12649549, “Sequence Permutation Generated Lysine and Tryptophan-Rich Antimicrobial Peptides with Enhanced Therapeutic Index” (Antibiotics, 2025):
Read-outs that look alike come from different tables or passages of the source.

What was measured:
Gram-negative bacteria = assay: Geometric mean MIC and therapeutic index, Gram-negative bacteria; assay type: cell-based; conditions: Gram-negative bacteria; for GM G− (geometric mean of the MIC values): MH broth, MIC >50 µg/mL counted as 100 µg/mL; for Therapeutic Index (TI) G−: HC10/GM
Outline: (§1)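 Selectivity index derived from human red blood cell HC10 relative to geometric mean MIC. Inoculum was 5 × 10^5 CFU/mL in Müller-Hinton or modified LYM broth, and each experiment was repeated independently three times.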

[1] = system: Both Gram-positive and -negative bacteria; assay: Geometric mean MIC, therapeutic index and fold changes of MIC, whole panel of strains; assay type: cell-based; conditions: for GM G−/+ (geometric mean of the MIC values): Both Gram-positive and -negative bacteria, MH broth, MIC >50 µg/mL counted as 100 µg/mL; for Therapeutic Index (TI) G−/+: HC10/GM, both Gram-positive and -negative bacteria
Outline: as §1

S. aureus ATCC 25923 = system: S. aureus ATCC 25923
Outline: (§2)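 Salt and pH tolerance was assessed by determining MICs in LYM medium containing 50–300 mM NaCl, 0.5–2.5 mM MgCl2, or at pH 4.5–6.5, alongside MH broth. The inoculum was 5 × 10^5 CFU/mL.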

[2] = system: Pseudomonas aeruginosa Migula (ATCC 27853)
Outline: as §2

[3] = system: A. baumannii 14B0097 (Acinetobacter sp., BCRC number 14B0097)
Outline: as §2

[4] = system: Escherichia coli (ATCC 25922)
Outline: as §2

S. aureus ATCC 6538 = system: S. aureus ATCC 6538
Outline: as §2

[5] = system: A. baumannii 14B0091 (Acinetobacter sp., BCRC number 14B0091)
Outline: as §2

[6] = LYM broth, 0 mM NaCl, 16 h, 37 °C
[7] = LYM broth, 50 mM NaCl, 16 h, 37 °C
[8] = LYM broth, 100 mM NaCl, 16 h, 37 °C
[9] = LYM broth, 200 mM (NaCl), 16 h, 37 °C
[10] = LYM broth, 300 mM (NaCl), 16 h, 37 °C
[11] = MH broth, 5 × 10^5 CFU/mL, 16 h, 37 °C, repeated three times

Ac-RKWLKWLAKKKKW-NH2 [Peptide W5K03]
GM G− (geometric mean of the MIC values) (Gram-negative bacteria): 16.5 µg/mL | Therapeutic Index (TI) G− (Gram-negative bacteria): 6.6 | GM G−/+ (geometric mean of the MIC values) [1]: 33.0 µg/mL | Therapeutic Index (TI) G−/+ [1]: 3.3 | MIC (S. aureus ATCC 25923; [6]): 6.25 µg/mL | MIC (S. aureus ATCC 25923; LYM broth, 0.5 mM MgCl2): 6.25 µg/mL | MIC (S. aureus ATCC 25923; LYM broth, 1.5 mM MgCl2): 12.5 µg/mL | MIC (S. aureus ATCC 25923; LYM broth, 2.5 mM MgCl2): 12.5 µg/mL | MIC (S. aureus ATCC 25923; [7]): 12.5 µg/mL | MIC (S. aureus ATCC 25923; [8]): 25 µg/mL | MIC (S. aureus ATCC 25923; [9]): >50 µg/mL | MIC (S. aureus ATCC 25923; [10]): >50 µg/mL | MIC (S. aureus ATCC 25923; LYM broth, pH 4.5): 6.25 µg/mL | MIC (S. aureus ATCC 25923; LYM broth, pH 5.5): 3.13 µg/mL | MIC (S. aureus ATCC 25923; LYM broth, pH 6.5): 3.13 µg/mL | MIC (S. aureus ATCC 25923; [11]): 50 µg/mL | MIC [2, 6]: 6.25 µg/mL | MIC ([2]; LYM broth, 0.5 mM MgCl2): 6.25 µg/mL | MIC ([2]; LYM broth, 1.5 mM MgCl2): 12.5 µg/mL | MIC ([2]; LYM broth, 2.5 mM MgCl2): 12.5 µg/mL | MIC [2, 7]: 12.5 µg/mL | MIC [2, 8]: 25 µg/mL | MIC [2, 9]: 25 µg/mL | MIC [2, 10]: >50 µg/mL | MIC ([2]; LYM broth, pH 4.5): 12.5 µg/mL | MIC ([2]; LYM broth, pH 5.5): 6.25 µg/mL | MIC ([2]; LYM broth, pH 6.5): 3.13 µg/mL | MIC [2, 11]: 50 µg/mL | MIC [3, 6]: 1.56 µg/mL | MIC ([3]; LYM broth, 0.5 mM MgCl2): 3.13 µg/mL | MIC ([3]; LYM broth, 1.5 mM MgCl2): 3.13 µg/mL | MIC ([3]; LYM broth, 2.5 mM MgCl2): 3.13 µg/mL | MIC [3, 7]: 3.13 µg/mL | MIC [3, 8]: 3.13 µg/mL | MIC [3, 9]: 6.25 µg/mL | MIC [3, 10]: 25 µg/mL | MIC ([3]; LYM broth, pH 4.5): 3.13 µg/mL | MIC ([3]; LYM broth, pH 5.5): 3.13 µg/mL | MIC ([3]; LYM broth, pH 6.5): 3.13 µg/mL | MIC [3, 11]: 6.25 µg/mL | MIC [4, 6]: 6.25 µg/mL | MIC ([4]; LYM broth, 0.5 mM MgCl2): 12.5 µg/mL | MIC ([4]; LYM broth, 1.5 mM MgCl2): 25 µg/mL | MIC ([4]; LYM broth, 2.5 mM MgCl2): 25 µg/mL | MIC [4, 7]: 25 µg/mL | MIC [4, 8]: 50 µg/mL | MIC [4, 9]: >50 µg/mL | MIC [4, 10]: >50 µg/mL | MIC ([4]; LYM broth, pH 4.5): 6.25 µg/mL | MIC ([4]; LYM broth, pH 5.5): 6.25 µg/mL | MIC ([4]; LYM broth, pH 6.5): 3.13 µg/mL | MIC [4, 11]: 50 µg/mL | MIC (S. aureus ATCC 6538; [6]): 1.56 µg/mL | MIC (S. aureus ATCC 6538; LYM broth, 0.5 mM MgCl2): 3.13 µg/mL | MIC (S. aureus ATCC 6538; LYM broth, 1.5 mM MgCl2): 3.13 µg/mL | MIC (S. aureus ATCC 6538; LYM broth, 2.5 mM MgCl2): 6.25 µg/mL | MIC (S. aureus ATCC 6538; [7]): 3.13 µg/mL | MIC (S. aureus ATCC 6538; [8]): 6.25 µg/mL | MIC (S. aureus ATCC 6538; [9]): 12.5 µg/mL | MIC (S. aureus ATCC 6538; [10]): 25 µg/mL | MIC (S. aureus ATCC 6538; LYM broth, pH 4.5): 6.25 µg/mL | MIC (S. aureus ATCC 6538; LYM broth, pH 5.5): 3.13 µg/mL | MIC (S. aureus ATCC 6538; LYM broth, pH 6.5): 3.13 µg/mL | MIC (S. aureus ATCC 6538; [11]): 25 µg/mL | MIC [5, 6]: 1.56 µg/mL | MIC ([5]; LYM broth, 0.5 mM MgCl2): 1.56 µg/mL | MIC ([5]; LYM broth, 1.5 mM MgCl2): 3.13 µg/mL | MIC ([5]; LYM broth, 2.5 mM MgCl2): 3.13 µg/mL | MIC [5, 7]: 3.13 µg/mL | MIC [5, 8]: 3.13 µg/mL | MIC [5, 9]: 6.25 µg/mL | MIC [5, 10]: 25 µg/mL | MIC ([5]; LYM broth, pH 4.5): 3.13 µg/mL | MIC ([5]; LYM broth, pH 5.5): 3.13 µg/mL | MIC ([5]; LYM broth, pH 6.5): 1.56 µg/mL | MIC [5, 11]: 6.25 µg/mL

Ac-WLAKKKKWRKWLK-NH2 [Peptide W5K08]
GM G− (geometric mean of the MIC values) (Gram-negative bacteria): 50.0 µg/mL | Therapeutic Index (TI) G− (Gram-negative bacteria): 2.2 | GM G−/+ (geometric mean of the MIC values) [1]: 61.6 µg/mL | Therapeutic Index (TI) G−/+ [1]: 1.8 | MIC (S. aureus ATCC 25923; [6]): 1.56 µg/mL | MIC (S. aureus ATCC 25923; LYM broth, 0.5 mM MgCl2): 3.13 µg/mL | MIC (S. aureus ATCC 25923; LYM broth, 1.5 mM MgCl2): 6.25 µg/mL | MIC (S. aureus ATCC 25923; LYM broth, 2.5 mM MgCl2): 6.25 µg/mL | MIC (S. aureus ATCC 25923; [7]): 3.13 µg/mL | MIC (S. aureus ATCC 25923; [8]): 12.5 µg/mL | MIC (S. aureus ATCC 25923; [9]): 50 µg/mL | MIC (S. aureus ATCC 25923; [10]): >50 µg/mL | MIC (S. aureus ATCC 25923; LYM broth, pH 4.5): 3.13 µg/mL | MIC (S. aureus ATCC 25923; LYM broth, pH 5.5): 3.13 µg/mL | MIC (S. aureus ATCC 25923; LYM broth, pH 6.5): 1.56 µg/mL | MIC (S. aureus ATCC 25923; [11]): 25 µg/mL | MIC [2, 6]: 3.13 µg/mL | MIC ([2]; LYM broth, 0.5 mM MgCl2): 3.13 µg/mL | MIC ([2]; LYM broth, 1.5 mM MgCl2): 6.25 µg/mL | MIC ([2]; LYM broth, 2.5 mM MgCl2): 12.5 µg/mL | MIC [2, 7]: 6.25 µg/mL | MIC [2, 8]: 25 µg/mL | MIC [2, 9]: 50 µg/mL | MIC [2, 10]: >50 µg/mL | MIC ([2]; LYM broth, pH 4.5): 6.25 µg/mL | MIC ([2]; LYM broth, pH 5.5): 3.13 µg/mL | MIC ([2]; LYM broth, pH 6.5): 3.13 µg/mL | MIC [2, 11]: 25 µg/mL | MIC [3, 6]: 3.13 µg/mL | MIC ([3]; LYM broth, 0.5 mM MgCl2): 3.13 µg/mL | MIC ([3]; LYM broth, 1.5 mM MgCl2): 3.13 µg/mL | MIC ([3]; LYM broth, 2.5 mM MgCl2): 6.25 µg/mL | MIC [3, 7]: 6.25 µg/mL | MIC [3, 8]: 12.5 µg/mL | MIC [3, 9]: 50 µg/mL | MIC [3, 10]: >50 µg/mL | MIC ([3]; LYM broth, pH 4.5): 6.25 µg/mL | MIC ([3]; LYM broth, pH 5.5): 3.13 µg/mL | MIC ([3]; LYM broth, pH 6.5): 3.13 µg/mL | MIC [3, 11]: 25 µg/mL | MIC [4, 6]: 3.13 µg/mL | MIC ([4]; LYM broth, 0.5 mM MgCl2): 6.25 µg/mL | MIC ([4]; LYM broth, 1.5 mM MgCl2): 6.25 µg/mL | MIC ([4]; LYM broth, 2.5 mM MgCl2): 6.25 µg/mL | MIC [4, 7]: 12.5 µg/mL | MIC [4, 8]: 12.5 µg/mL | MIC [4, 9]: 50 µg/mL | MIC [4, 10]: >50 µg/mL | MIC ([4]; LYM broth, pH 4.5): 3.13 µg/mL | MIC ([4]; LYM broth, pH 5.5): 3.13 µg/mL | MIC ([4]; LYM broth, pH 6.5): 3.13 µg/mL | MIC [4, 11]: 50 µg/mL | MIC (S. aureus ATCC 6538; [6]): 12.5 µg/mL | MIC (S. aureus ATCC 6538; LYM broth, 0.5 mM MgCl2): 3.13 µg/mL | MIC (S. aureus ATCC 6538; LYM broth, 1.5 mM MgCl2): 6.25 µg/mL | MIC (S. aureus ATCC 6538; LYM broth, 2.5 mM MgCl2): 6.25 µg/mL | MIC (S. aureus ATCC 6538; [7]): 25 µg/mL | MIC (S. aureus ATCC 6538; [8]): 50 µg/mL | MIC (S. aureus ATCC 6538; [9]): 50 µg/mL | MIC (S. aureus ATCC 6538; [10]): >50 µg/mL | MIC (S. aureus ATCC 6538; LYM broth, pH 4.5): 12.5 µg/mL | MIC (S. aureus ATCC 6538; LYM broth, pH 5.5): 6.25 µg/mL | MIC (S. aureus ATCC 6538; LYM broth, pH 6.5): 6.25 µg/mL | MIC (S. aureus ATCC 6538; [11]): >50 µg/mL | MIC [5, 6]: 3.13 µg/mL | MIC ([5]; LYM broth, 0.5 mM MgCl2): 3.13 µg/mL | MIC ([5]; LYM broth, 1.5 mM MgCl2): 3.13 µg/mL | MIC ([5]; LYM broth, 2.5 mM MgCl2): 6.25 µg/mL | MIC [5, 7]: 6.25 µg/mL | MIC [5, 8]: 25 µg/mL | MIC [5, 9]: >50 µg/mL | MIC [5, 10]: >50 µg/mL | MIC ([5]; LYM broth, pH 4.5): 6.25 µg/mL | MIC ([5]; LYM broth, pH 5.5): 3.13 µg/mL | MIC ([5]; LYM broth, pH 6.5): 3.13 µg/mL | MIC [5, 11]: >50 µg/mL
